This is an account of results in patent US20100015079A1, “Cosmetic Compositions for the Protection or Regeneration of Hair or Skin” (Institut Dr. Schrader, priority 2006, published 2010).

The structures appear in SMILES notation.

The nature of this test: UVA-induced photon emission (chemiluminescence, ICL-H) of permanently waved hair tresses after treatment with rinse-off formulation. Further details: species or system human. Conditions: Example 1; for UVA-induced photon emission (chemiluminescence), measure of hair damage: measured two days after treatment, damage by permanent wave alone 555%. As to the method: The effect of taurinamide hydrochloride on the regeneration of permanently waved hair was investigated. For this, three tresses of European hair (left natural, dense, color 7.0; Kerling) were subjected to a permanent wave treatment. The permanent wave solution had the following composition:
The tresses were washed for 1 min in a shaking machine (13.5% Texapon K12P in demineralized water) and rinsed for 2 minutes with lukewarm water. The tresses were saturated with permanent waving solution until drop-wet (10 ml for 3 tresses). After a contact time of 30 minutes, they were rinsed for 3 minutes with lukewarm water. The treatment with the permanent waving solution was repeated three times. The drop-wet tresses were then saturated with neutralizing solution (10 ml for 3 tresses). After a contact time of 10 minutes, they were rinsed for 3 minutes with lukewarm water.
To determine the effect of taurinamide, the following rinse-off formulations which comprised varying amounts of taurinamide hydrochloride were used:
The formulations were applied to the tresses from both sides using a paint brush on a glass plate (30 g for 3 tresses). After a contact time of 10 minutes, they were rinsed for 3 minutes with lukewarm water. The hair was then left to dry in the air.
Two days after the treatment, the UVA-induced photon emission (chemiluminescence) was measured. The photon emission is a measure of the hair damage. It was measured in accordance with the method described by S. Benard, H. Nerenz, M. Rohr and A. Schrader in IFSCC magazine Vol. 4 (2001), 185-189 (ICL-H (Induced Chemiluminescence of Human Hair) A new method for quantitative analysis of hair stress).

For the compound `Cl.NCCS(N)(=O)=O` [Taurinamide, taurinamide hydrochloride], the “UVA-induced photon emission (chemiluminescence), measure of hair damage” value amounted to 329% (0.1% by wt. taurinamide HCl rinse-off formulation 1.1, 10 min contact); 209% (0.5% by wt. taurinamide HCl rinse-off formulation 1.2, 10 min contact); 185% (1% by wt. taurinamide HCl rinse-off formulation 1.3, 10 min contact); 118% (5% by wt. taurinamide HCl rinse-off formulation 1.4, 10 min contact). Further, the “effect of treatment on hair damage (in words)” value (permanently waved hair, 0.1-5% taurinamide formulations) is listed as “significantly reduces hair damage”.
